According to patent publication US20090093423A2, “NOVEL 2-SUBSTITUTED METHYL PENAM DERIVATIVES” (Orchid Chemicals and Pharmaceuticals Limited, priority 2006, published 2009):

Molecular target: Penicillinase enzyme
Assay: β-Lactamase assay (Centa substrate)
Assay type: biochemical
Conditions: FIG. 1
Protocol: Representative novel compounds were subjected to β-lactamase assay to determine and compare their IC50 with that of Tazo as described elsewhere (Bebrone et. al, 2001, Antimicrob. Agents. Chemother. 45(6): 1868-1871; Jamieson et. al, 2003, Antimicrob. Agents. Chemother. 47(5): 1652-1657). Briefly enzyme inhibition assays with Tazo acid as the standard inhibitor for % inhibitions & IC50 value with optimized concentrations of Penicillinase enzyme & Centa β-lactamase substrate were performed.

Row | Structure (SMILES) | IC50 compared with Tazo
1 | CCC[n+]1ccn(C[C@@]2(C)[C@H](C(=O)[O-])N3C(=O)C[C@H]3S2(=O)=O)n1 [Example 3, 1-{[(2S,3S,5R)-2-Carboxy-3-methyl-4,4,7-trioxo-4-thia-1-azabicyclo[3.2.0]hept-3-yl]methyl}-3-n-propyl-1H-1,2,3-triazol-3-ium] | comparatively lower
2 | C=CC[n+]1ccn(C[C@@]2(C)[C@H](C(=O)[O-])N3C(=O)C[C@H]3S2(=O)=O)n1 [Example 4, 1-{[(2S,3S,5R)-2-Carboxy-3-methyl-4,4,7-trioxo-4-thia-1-azabicyclo[3.2.0]hept-3-yl]methyl}-3-allyl-1H-1,2,3-triazol-3-ium] | comparatively lower
3 | C[C@]1(Cn2cc[n+](CC(N)=O)n2)[C@H](C(=O)[O-])N2C(=O)C[C@H]2S1(=O)=O [Example 5, 1-{[(2S,3S,5R)-2-Carboxy-3-methyl-4,4,7-trioxo-4-thia-1-azabicyclo[3.2.0]hept-3-yl]methyl}-3-(2-amino-2-oxoethyl)-1H-1,2,3-triazol-3-ium] | comparatively lower
4 | C[C@]1(Cn2cc[n+](CC(=O)N3CCOCC3)n2)[C@H](C(=O)[O-])N2C(=O)C[C@H]2S1(=O)=O [Example 7, 1-{[(2S,3S,5R)-2-Carboxy-3-methyl-4,4,7-trioxo-4-thia-1-azabicyclo[3.2.0]hept-3-yl]methyl}-3-(2-morpholin-4-yl-2-oxoethyl)-1H-1,2,3-triazol-3-ium] | comparatively lower
